{
  "source": "paper PMC7567103",
  "about": "(Nature Communications, 2020)",
  "key": {"[1]": {"biological_target": "T1, GHRHR(23-405)-15AA-LgBiT-2MBP (Homo sapiens, UniProt Q02643)", "T1 construct": "24 h after transfection with GHRHR(23-423), GHRHR(23-405), GHRHR(23-405)-LgBiT-2MBP, or HA-Flag-GHRHR (WT and mutants); HA signal peptide (replaces native signal M1-G22) (N); expressed in transfected cells; host or cells: HEK 293 T", "T1 sequence (Q02643 23-405)": "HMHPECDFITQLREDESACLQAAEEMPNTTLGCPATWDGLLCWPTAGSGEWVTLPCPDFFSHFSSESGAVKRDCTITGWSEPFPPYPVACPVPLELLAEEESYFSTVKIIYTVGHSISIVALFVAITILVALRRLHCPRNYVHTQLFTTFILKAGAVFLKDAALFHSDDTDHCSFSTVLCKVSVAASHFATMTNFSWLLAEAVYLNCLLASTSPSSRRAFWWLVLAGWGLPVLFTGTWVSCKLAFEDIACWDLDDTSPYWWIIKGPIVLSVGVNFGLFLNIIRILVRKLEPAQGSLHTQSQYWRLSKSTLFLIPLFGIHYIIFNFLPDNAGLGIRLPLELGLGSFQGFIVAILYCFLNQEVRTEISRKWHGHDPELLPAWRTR", "assay": "whole cell binding, competitive inhibition of 125I-GHRH (Supplementary Fig. 2c)", "conditions": "competition with 80 pM 125I-GHRH; whole HEK 293T cells, RT 3 h; mean ± SEM, n = 7-8", "protocol": "(§1) This assay was conducted in 96-well Iso-plates (PerkinElmer) coated with poly-D-lysine hydrobromide (Sigma-Aldrich). Twenty-four hour after transfection with GHRHR(23-423) or GHRHR(23-405)-LgBiT-2MBP, HEK 293 T cells were washed twice, and incubated with blocking buffer (DMEM medium supplemented with 33 mM HEPES, and 0.1% (w/v) BSA, pH 7.4) for 2 h at 37 °C. Then, radiolabeled ^125I-GHRH (80 pM, Phoenix Biotech) and seven decreasing concentrations of unlabeled peptide (10 μM, […]) were added and competitively reacted with the cells in binding buffer (PBS supplemented with 10% (w/v) BSA, pH 7.4) at RT for 3 h. Cells were washed with ice-cold PBS and lysed by 50 μL lysis buffer (PBS supplemented with 20 mM Tris-HCl and 1% (v/v) Triton X-100, pH 7.4). Finally, 150 μL of scintillation cocktail (OptiPhase SuperMix, PerkinElmer) was employed and radioactivity (counts per minute) read in a scintillation counter (MicroBeta[2] plate counter, PerkinElmer).\n(§2) 93 of transfection. Data are normalized by the WT receptor and fitted with a three-\n(§3) 94 parameter logistic equation. All values are means ± S.E.M. of at least three […]\n(§4) Binding affinity is quantified by\n(§5) 97 reduction of radioactivity (counts per minute, CPM) and normalized to the […]\n(§6) 231 Binding data were analyzed using a three-parameter logistic equation to […]\n(§7) 234 determine statistical difference. *P<0.01; ND, not determined."}, "GHRHR(23-423) (WT)": {"biological_target": "T2, GHRHR(23-423) (WT) (Homo sapiens, UniProt Q02643)", "T2 construct": "24 h after transfection with GHRHR(23-423), GHRHR(23-405), GHRHR(23-405)-LgBiT-2MBP, or HA-Flag-GHRHR (WT and mutants); HA signal peptide (replaces native signal M1-G22) (N); expressed in transfected cells; host or cells: HEK 293 T", "T2 sequence (Q02643 23-423)": "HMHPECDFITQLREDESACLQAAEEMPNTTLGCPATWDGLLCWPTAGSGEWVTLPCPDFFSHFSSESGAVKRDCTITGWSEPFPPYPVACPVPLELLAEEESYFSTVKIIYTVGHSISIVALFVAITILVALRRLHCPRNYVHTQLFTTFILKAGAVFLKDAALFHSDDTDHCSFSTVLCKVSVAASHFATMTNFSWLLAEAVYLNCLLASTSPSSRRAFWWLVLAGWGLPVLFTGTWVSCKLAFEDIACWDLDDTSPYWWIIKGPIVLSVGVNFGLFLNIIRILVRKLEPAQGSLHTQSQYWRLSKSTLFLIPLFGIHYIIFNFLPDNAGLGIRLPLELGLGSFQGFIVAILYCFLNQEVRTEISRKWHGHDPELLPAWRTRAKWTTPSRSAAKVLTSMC", "assay": "whole cell binding, competitive inhibition of 125I-GHRH (Supplementary Fig. 2c)", "conditions": "competition with 80 pM 125I-GHRH; whole HEK 293T cells, RT 3 h; mean ± SEM, n = 7-8", "protocol": "as §1, §2, §3, §4, §5, §6, §7"}},
  "data": [
    {"smiles": "CC[C@H](C)[C@H](NC(=O)[C@H](C)NC(=O)[C@H](CC(=O)O)NC(=O)[C@H](C)NC(=O)[C@@H](N)Cc1ccc(O)cc1)C(=O)N[C@@H](Cc1ccccc1)C(=O)N[C@H](C(=O)N[C@@H](CC(N)=O)C(=O)N[C@@H](CO)C(=O)N[C@@H](Cc1ccc(O)cc1)C(=O)N[C@@H](CCCNC(=N)N)C(=O)N[C@@H](CCCCN)C(=O)N[C@H](C(=O)N[C@@H](CC(C)C)C(=O)NCC(=O)N[C@@H](CCC(N)=O)C(=O)N[C@@H](CC(C)C)C(=O)N[C@@H](CO)C(=O)N[C@@H](C)C(=O)N[C@@H](CCCNC(=N)N)C(=O)N[C@@H](CCCCN)C(=O)N[C@@H](CC(C)C)C(=O)N[C@@H](CC(C)C)C(=O)N[C@@H](CCC(N)=O)C(=O)N[C@@H](CC(=O)O)C(=O)N[C@H](C(=O)N[C@@H](CCSC)C(=O)N[C@@H](CO)C(=O)N[C@@H](CCCNC(=N)N)C(=O)N[C@@H](CCC(N)=O)C(=O)N[C@@H](CCC(N)=O)C(=O)NCC(=O)N[C@@H](CCC(=O)O)C(=O)N[C@@H](CO)C(=O)N[C@@H](CC(N)=O)C(=O)N[C@@H](CCC(N)=O)C(=O)N[C@@H](CCC(=O)O)C(=O)N[C@@H](CCCNC(=N)N)C(=O)NCC(=O)N[C@@H](C)C(=O)N[C@@H](CCCNC(=N)N)C(=O)N[C@@H](C)C(=O)N[C@@H](CCCNC(=N)N)C(=O)N[C@@H](CC(C)C)C(N)=O)[C@@H](C)CC)C(C)C)[C@@H](C)O", "note": "[GHRH, Growth hormone-releasing hormone]", "values": [
      {"measurement": "IC50", "setting": "[1]", "result": 0.879, "unit": "nM"},
      {"measurement": "IC50", "setting": "GHRHR(23-423) (WT)", "result": 2.75, "unit": "nM"}
    ]}
  ]
}
